Test results: patent publication US20210278391A1, “COMPOSITIONS AND METHODS FOR TREATING CARDIOVASCULAR AND METABOLIC CONDITIONS” (The Regents of the University of California, priority 2017, published 2021)
“Also recorded” adds a separate entry of the source.

Key:
Format in all cases: in vivo, mouse
BCKD subunit E1α = experiment: Immunoblot of phosphorylated BCKD subunit E1α in heart of BT2-treated mice; settings: wild-type mice, BT2 40 mg/kg/d oral gavage vs vehicle
Method: PP2Cm germ-line knockout (PP2Cm-KO) mice were generated as previously described (Lu et al. (2009), supra). PP2Cm KO mice were backcrossed for more than 8 generations into a C57BL/6 background. Wild type C57BL/6 mice and PP2Cm KO mice were housed at 22° C. with a 12-hour light, 12-hour dark cycle with free access to water and standard chow. Studies were performed with male mice. Human cohorts of dilated cardiomyopathy and controls were obtained from Columbia and Duke with Institutional Review Board approval. All animal procedures were carried out in accordance with the guidelines and protocols approved by the University of California at Los Angeles Institutional Animal Care and Use Committee (IACUC). Transaortic constriction (TAC) and cardiac echocardiography were performed as reported earlier 17 on mice from different genotypes between 14 and 16 weeks of age. […]
Proteins from heart tissue or cells were harvested in buffer (50 mM HEPES (pH7.4), 150 mM NaCl, 1% NP-40, 1 mM EDTA, 1 mM EGTA, 1 mM glycerophosphate, 2.5 mM sodium pyrophosphate, 1 mM Na3VO4, 20 mM NaF, 1 mM phenylmethylsulfonyl fluoride, 1 μg/mL of aprotinin, leupeptin, and pepstatin). […] Protein signals were detected using HRP conjugated secondary antibodies and enhanced chemiluminescence (ECL) western blotting detection regents (Pierce). […]

[1] = Plasma BCKA/BCAA concentrations in wild-type and PP2Cm-KO mice; settings: BT2 vs vehicle
Method: PP2Cm germ-line knockout (PP2Cm-KO) mice were generated as previously described (Lu et al. (2009), supra). PP2Cm KO mice were backcrossed for more than 8 generations into a C57BL/6 background. Wild type C57BL/6 mice and PP2Cm KO mice were housed at 22° C. with a 12-hour light, 12-hour dark cycle with free access to water and standard chow. Studies were performed with male mice. Human cohorts of dilated cardiomyopathy and controls were obtained from Columbia and Duke with Institutional Review Board approval. […]
BCKA Measurements in mouse Plasma: The method published by Olson et al. (2013), supra was followed with modification. […] The samples were re-suspended in 50:50 MeOH:5 mM NH4 acetate and analyzed by LC-MS/MS using a Sciex 3200 Q-Trap coupled to a Shimadzu Prominence LC. An Agilent C18 XDB 5 micron packing column (50×4.6 mm) was used for chromatography with the following conditions: Buffer A: 5 mM NH4 acetate, Buffer B: methanol, 0-2.0 min 50% B, 2.0-2.5 min gradient to 100% B, 2.5-3.5 min 100% B, 3.5-3.6 min gradient to 50% B, 3.6-4.6 min 50% B. The derivatized keto acids were detected with the mass spectrometer in positive MRM (multiple reaction monitoring) mode using the following transitions: KIC 203.1 to 161.1 (retention time: 2.91 min); KIV 189.145 to 119.2 (retention time 2.84 min); KMV 203.065 to 174.2 (retention time 2.99 min); [^13C] […]

BCKD = BCKD activity in tissues of high-fat-diet-induced obese (DIO) mice treated with BT2; settings: BT2 40 mg/kg/day 8 weeks oral gavage
Method: (§1) Animals were euthanized using carbon dioxide asphyxiation followed by cervical dislocation and then dissected. Blood was harvested by cardiac puncture and centrifuged to isolate plasma which was stored at −80° C. Acidified citrate dextrose was used as an anticoagulant. Immediately after blood collection, heart, liver, kidneys, and both hind leg quadriceps muscles were removed and snap frozen in liquid nitrogen.
Assays for the BCKD activity were carried out as prescribed previously (Tso et al. (2014), supra). Briefly, frozen tissues were thawed and homogenized in a homogenizing buffer (30 mM KPi, pH 7.5, 3 mM EDTA, 5 mM DTT, 1 mM KIC, 3% fetal bovine serum, 5% Triton X-100, and 1 μM leupeptin). Samples were spun at 25,000×g and supernatants were collected. Diluted samples were placed in 24-well assay plates with assay buffer (30 mMKPi, pH7.5, 0.4 mM CoA, 3 mM NAD, 5% fetal bovine serum, 2 mM thiamine diphosphate, 2 mM MgCl2, and 65 μg of human E3). Keto [1-^14C] isovalerate substrate was added and assay plates were incubated at 37° C. for 30 min. 20% TCA solution was added to stop the reactions. Assay plates were incubated further at 37° C. for 45 min. ^14CO2 trapped on 2 M NaOH soaked filter wicks was counted in a liquid scintillation counter.

[2] = Plasma BCAA/BCKA in ob/ob mice treated with BT2; settings: BT2 40 mg/kg/day
Method: as §1
The endogenous signal from blank plasma was subtracted from each point on the standard curve, and the data were plotted in GraphPad Prism. BCAA concentrations in treated samples were determined based on this standard curve.

[3] = tested on: pressure-overloaded heart; experiment: Transaortic constriction (TAC) pressure overload, BT2 started one week before TAC, echocardiography; settings: 4 weeks after TAC, BT2 40 mg/kg/d oral gavage
Method: PP2Cm germ-line knockout (PP2Cm-KO) mice were generated as previously described (Lu et al. (2009), supra). PP2Cm KO mice were backcrossed for more than 8 generations into a C57BL/6 background. Wild type C57BL/6 mice and PP2Cm KO mice were housed at 22° C. with a 12-hour light, 12-hour dark cycle with free access to water and standard chow. Studies were performed with male mice. Human cohorts of dilated cardiomyopathy and controls were obtained from Columbia and Duke with Institutional Review Board approval. All animal procedures were carried out in accordance with the guidelines and protocols approved by the University of California at Los Angeles Institutional Animal Care and Use Committee (IACUC). Transaortic constriction (TAC) and cardiac echocardiography were performed as reported earlier 17 on mice from different genotypes between 14 and 16 weeks of age. […] Measurements of BCKD activity in mouse cardiac tissue and plasma BCKA/BCAA concentrations were performed as previously described (Tso et al. (2014), supra).
In mice, transverse aortic constriction (TAC) was performed as described (Gao et al. (2016) J Clin Invest. 126:195-206) in anesthetized (pentobarbital 60 mg/kg, IP) and ventilated mice (age 14-16 weeks) to induce hypertrophy and heart failure. […]

With `O=C(O)c1sc2cc(Cl)ccc2c1Cl` [BT2, 3,6-dichlorobenzo[b]thiophene-2-carboxylic acid] the “phosphorylation of BCKD subunit E1α in heart” value (BCKD subunit E1α) was “significantly reduced”, the “plasma BCAA level” value [1] was “modest impact; also recorded: reduced” and the “plasma BCKA level” value [1] was “markedly reduced”. For the same molecule, the “BCKD activity in heart, muscle liver and kidney” value (BCKD) was “augments”, the “magnitudes of reductions in plasma BCKA concentrations (vs BCAA)” value [2] was “far more pronounced” and the “plasma BCAA levels” value [2] was “significantly lowered”. The chamber dilation [3] was “reduced” and the “left ventricular ejection fraction” value [3] was “significantly preserved”.
